Assay results published in article PMC11984407, “A natural small molecule isoginkgetin alleviates hypercholesterolemia and atherosclerosis by targeting ACLY” (Theranostics, 2025).

Assays:
recombinant ACLY protein [1] = molecular target: T1, recombinant ACLY protein (Homo sapiens, UniProt P53396); assay: ACLY activity assay in vitro (cell-free ADP-Glo assay); type: biochemical; conditions: read-out: ACLY enzyme activity IC50
T1 sequence (P53396 1-1101): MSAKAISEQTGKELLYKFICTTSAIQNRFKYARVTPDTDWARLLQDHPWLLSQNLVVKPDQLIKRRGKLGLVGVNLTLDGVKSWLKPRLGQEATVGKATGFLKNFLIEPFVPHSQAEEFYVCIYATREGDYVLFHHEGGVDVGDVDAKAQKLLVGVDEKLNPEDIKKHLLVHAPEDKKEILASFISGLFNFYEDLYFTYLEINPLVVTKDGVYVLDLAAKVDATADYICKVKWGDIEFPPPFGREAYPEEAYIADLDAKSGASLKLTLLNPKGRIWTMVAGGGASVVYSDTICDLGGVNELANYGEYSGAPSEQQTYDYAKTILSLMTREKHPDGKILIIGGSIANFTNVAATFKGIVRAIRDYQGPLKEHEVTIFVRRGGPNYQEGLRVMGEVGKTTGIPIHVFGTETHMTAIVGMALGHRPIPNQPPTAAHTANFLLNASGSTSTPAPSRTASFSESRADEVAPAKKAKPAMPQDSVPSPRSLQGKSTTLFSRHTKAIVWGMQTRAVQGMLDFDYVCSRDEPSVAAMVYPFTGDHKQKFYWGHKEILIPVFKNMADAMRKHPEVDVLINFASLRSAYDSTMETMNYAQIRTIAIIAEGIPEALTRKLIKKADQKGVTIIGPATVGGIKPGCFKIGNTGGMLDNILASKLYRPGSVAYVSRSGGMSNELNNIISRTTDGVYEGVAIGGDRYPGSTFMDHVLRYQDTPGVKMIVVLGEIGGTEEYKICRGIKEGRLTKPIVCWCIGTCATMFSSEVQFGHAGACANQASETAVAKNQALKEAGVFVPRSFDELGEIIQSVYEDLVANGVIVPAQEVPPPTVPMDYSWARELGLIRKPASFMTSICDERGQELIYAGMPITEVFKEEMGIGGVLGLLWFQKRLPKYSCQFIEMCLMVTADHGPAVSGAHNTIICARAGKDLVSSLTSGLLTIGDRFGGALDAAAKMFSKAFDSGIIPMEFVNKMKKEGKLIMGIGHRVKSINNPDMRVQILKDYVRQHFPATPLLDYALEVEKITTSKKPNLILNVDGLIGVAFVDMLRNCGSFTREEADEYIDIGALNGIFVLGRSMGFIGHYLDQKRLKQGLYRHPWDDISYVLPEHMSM
Protocol: ACLY activity was assessed in a cell-free system using an ADP-Glo dependent assay, as previously described. Briefly, the reaction was conducted in a 384-well plate containing 2 µL of substrate (5 mmol/L ATP, 30 mmol/L citrate, 15 mmol/L CoA) in kinase buffer (40 mmol/L Tris base, 10 mmol/L MgCl2, 5 mmol/L DTT). The reaction was initiated by adding 20 nmol/L recombinant human ACLY protein and various concentrations of the compounds, followed by incubation for 30 min at 37 °C. During the reaction, ACLY converted ATP to ADP. ADP levels, which reflect ACLY activity, were quantified using the ADP-Glo assay kit (V9102, Promega, Madison, USA) in accordance with the manufacturer's instructions. The enzymatic activity curve was analyzed using the log (inhibitor) versus normalized response-variable slope function in GraphPad Prism.

[2] = system: primary mouse hepatocytes; assay: De novo lipogenesis in vitro, [1,2-14C]-acetate incorporation; type: cell-based; conditions: 2.5 μmol/L and 5 μmol/L, 4 h
Protocol: Hepatocytes were seeded in 6-well plates at a density of 6 x 10^5 cells per well. They were exposed to various compounds along with [1,2-^14C]-acetate (0.1 μCi per well) for specified durations. Following treatment, the cells underwent washing with cold PBS and were lysed in 0.4 to 0.6 mL of 0.5 M KOH. The saponification process at 95 °C for 3 h with 0.4 mL of KOH (in 20% methanol solution) enabled the separation of cholesterol and fatty acids. Cholesterol, being nonpolar, was extracted using 0.5 mL of petroleum ether in three separate instances. In comparison, polar fatty acids were extracted with 0.5 mL of petroleum ether after adding 0.2 mL of H2O and 0.4 mL of 5 M H2SO4 in three rounds. The petroleum ether extracts were left to air dry at room temperature overnight. The radioactivity of the resultant products was quantified using a liquid scintillation counter.

recombinant ACLY protein [3] = molecular target: T1, recombinant ACLY protein; assay: Surface plasmon resonance (OpenSPR); type: binding; conditions: SPR, 1:1 Langmuir model; read-out: equilibrium dissociation constant (KD)
Protocol: The interaction between isoginkgetin and ACLY was examined using an OpenSPR instrument (Nicaya, Canada). The recombinant ACLY protein was immobilized on a carboxyl sensor chip (SEN-AU-100-3-COOH; Nicaya, Canada) via a standard amine coupling method. Isoginkgetin was injected into the running buffer at various concentrations (ranging from 0.5 to 8 μM) at a flow rate of 20 μL/min. The interaction parameter KD was determined using TraceDrawer evaluation software based on the 1:1 Langmuir binding model.

## COc1ccc(-c2cc(=O)c3c(O)cc(O)c(-c4cc(-c5cc(=O)c6c(O)cc(O)cc6o5)ccc4OC)c3o2)cc1 [ISOGK, Isoginkgetin]
Recombinant ACLY protein [1]
  IC50: 5.46 ± 1.11 µM
[2]
  incorporation of [1,2-14C]-acetate into fatty acids and cholesterol: inhibition of lipogenesis
Recombinant ACLY protein [3]
  Kd: 5.1 µM
